Source: patent US8754241B2, “Organic compound and electrochromic element having the same” (Canon Kabushiki Kaisha, priority 2012, dated 2014)
Converted amounts (≈) assume the structure as drawn.

Assays:
Format in all cases: physicochemical
[1] = oxidation absorption spectrum / change in transmittance on constant potential oxidation; conditions: for shape and wavelength of the oxidation absorption peak with concentration (π-dimer formation): 5.0×10^−4 or 1.7×10^−4 mol/L; for transmittance after oxidation / light absorption peak in the oxidized state: constant potential oxidation at +0.9 V (vs. Ag/Ag+); for transmittance after oxidation: at the absorption peak
Description: (§1) For the measurement of an oxidation absorption spectrum, platinum was used for a working electrode, platinum was used for a counter electrode, silver was used for a reference electrode, and a dichloromethane solution was used in which tetrabutylammonium perchlorate (0.1 mol/l) as a supporting electrolyte and each of the above compounds (5.0×10^−4 or 1.7×10^−4 mol/L) were dissolved.
In this solution, constant potential oxidation at +0.9 V (vs. Ag/Ag+), which was equal to or more than the oxidation potential of the compound, was performed, and the change in transmittance was measured.
The measurement of the oxidation absorption spectrum of the obtained compound D-11 was performed as in Example 4 using a dichloromethane solution in which tetrabutylammonium perchlorate (0.1 mol/L) and D-11 (5.0×10^−4 mol/L) were dissolved. […] This oxidation colored state was again returned to a colorless and transparent state by reduction, and the electrochromic characteristics in conformity with oxidation-reduction were confirmed. In addition, since the shape and the absorption wavelength of this oxidation absorption peak were not changed with the concentration, it was shown that as in Example 4, the formation of π-dimers was suppressed.

[2] = ultraviolet-visible absorption spectrum in the neutral state, chloroform solution
Description: The exemplary compound B-2 thus obtained was dissolved in chloroform, and the absorption spectrum of this solution measured by using an ultraviolet-visible spectrophotometer (V-560 manufactured by JASCO Corporation) is shown in FIG. 2.

[3] = oxidation-reduction cycle durability test (cyclic voltammetry); conditions: dichloromethane; for change in oxidation peak current after 20,000 oxidation-reduction cycles (in words): 20,000 cycles; for Rate of Change in Oxidation Peak Current after Oxidation-Reduction Cycles for 20,000 Times: tetrabutylammonium perchlorate 0.1 mol/L, compound 1.0×10^−4 mol/L, initial current = 100%
Description: as §1, with “durability measurement, glassy carbon” for “measurement of an oxidation absorption spectrum, platinum”, “mol/L)” for “mol/l)”, “(1.0×10^−4” for “(5.0×10^−4 or 1.7×10^−4”
In this solution, a square-wave potential program including constant potential oxidation at +0.8 V (B-2 and B-1) or +1.2 V (XX-4) (vs. Ag/Ag^+), each of which was equal to or more than the oxidation potential of the corresponding compound, for 3 seconds and subsequent constant potential reduction at 0 V (vs. Ag/Ag^+) for 3 seconds was repeatedly performed 20,000 times.
The changes in oxidation peak current in cyclic voltammetry (CV) measurement before and after the oxidation-reduction cycles for 20,000 times are shown in Table.
In this table, the “rate of change in oxidation peak current” indicates a value obtained by adding the change in current from the initial current (represented by 100%) to the initial current.

[4] = solubility in propylene carbonate solution of supporting electrolyte; conditions: propylene carbonate solution of LiCO4 (0.1 mol/L), organic solvent or mixture
Description: In addition, as one example of the element solvent, the solubility of the compound D-11 in a propylene carbonate solution of LiCO4 (supporting electrolyte, 0.1 mol/L) was confirmed. According to the result, it was confirmed that this compound was dissolved at a concentration of 9 mmol/L and that the solubility thereof was higher than the solubility (6 mmol/L) of the compound B-2 of Example 1. The reason for this is believed that since having an ester group-containing phenyl group at the 3-position of DTT, the compound D-11 has an improved solubility into propylene carbonate, which is a polar solvent.

shape and wavelength of the oxidation absorption peak with concentration (π-dimer formation) [1]	transmittance after oxidation [1]	light absorption peak in the oxidized state ([1]; dichloromethane)	transmittance in the bleached state before oxidation ([1]; over the entire visible light region, dichloromethane)	λ max at which the absorption peak showed the maximum intensity [2]	change in oxidation peak current after 20,000 oxidation-reduction cycles (in words) [3]	Rate of Change in Oxidation Peak Current after Oxidation-Reduction Cycles for 20,000 Times [3]	solubility [4]	SMILES	absorption in the visible light region [2]
not changed	20.3%	approximately 510 nm	approximately 100%	309.5 nm	hardly observed	98%	–	COc1cccc(OC)c1-c1sc2c(sc3c(-c4ccccc4)c(-c4c(OC)cccc4OC)sc32)c1-c1ccccc1 [B-1]	no absorption over the entire visible light region
not changed	36.3%	541.5 nm	–	316.0 nm	–	–	9 mM (≈ 7140 µg/mL)	COC(=O)c1ccc(-c2c(-c3c(OC)cccc3OC(C)C)sc3c2sc2c(-c4ccc(C(=O)OC)cc4)c(-c4c(OC)cccc4OC(C)C)sc23)cc1 [D-11]	no absorption over the entire visible light region
–	–	–	–	–	decreased	81%	–	CC(C)(C)c1cc2sc3cc(C(C)(C)C)sc3c2s1 [XX-4, reference compound]	–
not changed	–	–	–	307.5 nm	hardly observed	101%	6 mM (≈ 4060 µg/mL)	COc1cccc(OC(C)C)c1-c1sc2c(sc3c(-c4ccccc4)c(-c4c(OC)cccc4OC(C)C)sc32)c1-c1ccccc1 [B-2]	no absorption over the entire visible light region
